Measurements taken from US11738099B2, “Molecular probes and methods of use” (CASE WESTERN RESERVE UNIVERSITY, priority 2014, dated 2023).
Where a SMILES comes first, the peptide text is derived from it. The star is where a group is joined. X1 = O=C(O)CN1CCN(CC(=O)O)CCN(CC(O)Cn2cc(CCCC(=O)*)nn2)CCN(CC(=O)O)CC1; PEG2 = NCCOCCOCCC(=O)O

How the values were obtained:
[1] = tested on: LNCaP prostate tumor xenografts; experiment: In vivo T1-weighted MRI at 7T, LNCaP tumors; design: species or system mouse
Method: All MRI experiments were performed on a horizontal 7T Bruker scanner (Bruker Biospin Co., Billerica, Mass.). Imaging experiments were performed when the tumor size reached 5-8 mm in diameter. ZD2-Gd(HP-DO3A) was administered intravenously at the dose of 0.1 mmol/kg after acquiring pre-contrast images. Post-contrast images were obtained at 10 min interval up to 30 min. The axial slices of mouse at the tumor location were acquired using T1-weighted spin echo sequence with the following parameters: field of view (FOV): 3 cm; slice thickness: 1.2 mm; interslice distance: 1.2 mm; TR: 500 ms, TE: 8.1 ms; flip angle: 90°; average: 2; matrix size: 128×128. Contrast-to-noise ratio (CNR) at each time point was calculated by subtraction of the average signal intensity in the tumor and muscle, divided by the standard deviation of image noise. ProHance® (gadoteridol) was used as a control in the imaging experiments.

[2] = In vivo transmetallation and urinary excretion; design: species or system mouse; conditions: 0.1 mmol-Gd/kg
Method: Balb/c mice (Charles River Laboratories, Wilmington, Mass., USA) were randomly divided into groups of ZD2-Gd(HP-DO3A) and ProHance (n=5) and placed in the metabolism cages, 48 hours prior to injection. […] Urine samples were collected at 12 h pre-injection, and then 8, 24, 48, and 72 h post-injection from the metabolic box. The collected urine samples were centrifuged at 4,000 rpm for 15 min. The concentration of Gd(III), Zn(II), Cu(H), and Ca(II) in the supernatant of the urine samples was determined by ICP-OES after appropriate dilutions.

[3] = Relaxivity at 1.5T in water, 37° C.; assay type: physicochemical
Method: Relaxivity is an important parameter for an MR contrast agent. It reflects how the relaxation rate of the surrounding water proton changes as a function of concentration, and it is directly associated with the agent's contrast enhancing capability during imaging. The relaxivity of the 4 contrast agents was tested at 37° C. in water and compared to Gd(HP-DO3A), Gd-DOTA and ZD2-Gd(HP-DO3A) (FIG. 26). […] Compared to Gd(HP-DO3A), Gd-DOTA, the size increase of the targeted contrast agents due to the peptides and PEG spacer could result in an increase of τR,^[42, 43] thus leading to higher relaxivities.

[4] = Gd biodistribution (ICP-OES); conditions: 1 week after injection
Method: (§3) PC3 tumor-bearing athymic nude mice (sixteen mice) were randomly divided into 4 groups (four mice each group). […] The animals were sacrificed at 2 and 7 days after injection. The blood and tissue samples, including brain, femur, heart, lung, liver, muscle, spleen, and kidney, were collected and weighed. The tissue samples were then cut into small pieces and mixed with ultra-pure nitric acid (1.0 mL, 70%, EMD, Gibbstown, N.J.). The tissue samples were liquefied within 2 weeks and the solution was transferred to a centrifuge tube and centrifuged at 14,000 rpm for 15 min. The supernatant (0.2 mL) was diluted with 9.8 mL deionized water and further centrifuged at 14,000 rpm for 15 min. The Gd(III) concentration in the final supernatant was measured by ICP-OES. […] The Gd content in different organ/tissues was calculated as the percentage of injected dose per gram of organ/tissues (% Dose/g).

[5] = mouse, in vivo
Method: as §3

PC3 tumors = tested on: PC3 tumors
Method: (§1) The following imaging parameters were used for T1 mapping methods: flip angle 10°; echo time 2.09 ms; slice thickness 1 mm; number of average 1; field of view 3×3 cm^2; matrix size 128×128. For each slice, 50 images that covered 5 s of the saturation recovery curve were acquired within an interval of 100 ms. Proton density (Mn) images were acquired with repetition time (TR) of 2 s. Cartesian MRSLL images were also acquired as a validation of spiral MRSLL method. Center 64 k-space lines were acquired in Cartesian method as described previously. Other acquisition parameters were the same as spiral MRSLL.
(§2) Quantitative T1 maps of the tumors were acquired before and at 30 min after the injection of ZD2-Gd(HP-DO3A) and ProHance. […] At the end of the T1 map acquisitions, the mice were sacrificed and the Gd concentration in their tumors was measured by inductively coupled plasma optical emission spectrometry (ICP-OES).

LNCaP tumors = conditions: 30 min after injection; before injection 3.21±0.12 s
Method: as §1, §2

[6] = tested on: PC-3 human prostate cancer xenograft; experiment: MRI of PC-3 xenograft (Example 2); assay type: in vivo, mouse; conditions: 0.1 mmol-Gd/kg intravenous
From the text: The same contrast agent also works for prostate cancer imaging. We then tested the effectiveness of targeting EDB-FN with the contrast agent for prostate cancer MRI in male nude mice bearing primary PC-3 human prostate cancer xenograft.

[7] = In vitro complexation stability in PBS with Cu2+, Ca2+, Zn2+; assay type: physicochemical
Method: FIGS. 16(A-B) illustrate in vitro complexation stability and transmetallation analysis of ZD2-Gd(HP-DO3A). A) relative Gd content of ZD2-Gd(HP-DO3A) assayed during 200-min incubation of the agent in phosphate buffer saline (PBS) with and without Cu^2+, Ca^2+, or Zn^2+ ions. […] B) In vitro transmetallation analysis of MultiHance, OmniScan, ProHance (abbreviated as Pro.), and ZD2-Gd(HP-DO3A) (abbreviated as ZD2) in mouse senim.

4T1 metastatic tumors = experiment: MRI of breast cancer metastatic tumor model; assay type: in vivo, mouse
Method: In order to construct a metastatic tumor model, 0.2×10^6 4T1 tumor cells undergone 5 days of TGFβ induction were injected through left ventricle of heart, resulting in the spread of tumor cells primarily in brain, lung, liver, lymph node, adrenal gland, chest, and bone marrow. Bioluminescent images of the mice at two weeks were used to monitor the growth of tumors. To assess the targeting capacity of l-ZD2-Cy5, brain and lung were harvested from the mice three hours after 10 nmol l-ZD2-Cy5 were injected. […] Normal brain and lung harvested from normal mice injected with l-ZD2-Cy5 were used as negative controls. Examination of bigger metastatic tumors in lymph nodes and adrenal gland, as shown in FIG. 8B further backed up the targeting efficiency of l-ZD2-Cy5.
Breast cancer metastatic tumor model was imaged at two weeks in order to validate the properties of l-ZD2-Gd(HP-DO3A) in detecting breast cancer micrometastases. In FIG. 9A, a mouse developed with metastatic tumors in lymph nodes, adrenal glands, and chest was imaged in MRI after l-ZD2-Gd(HP-DO3A) injection, in conjugation with BLI validation of tumor positions.

Structure (SMILES): CC(C)[C@H](NC(=O)[C@@H](NC(=O)CCOCCOCCNC(=O)CCCc1cn(CC(O)CN2CCN(CC(=O)O)CCN(CC(=O)O)CCN(CC(=O)O)CC2)nn1)[C@@H](C)O)C(=O)N[C@@H](CCCNC(=N)N)C(=O)N[C@H](C(=O)N[C@@H](CO)C(=O)N[C@@H](C)C(=O)N[C@@H](CC(=O)O)C(=O)O)[C@@H](C)O (stereo partly drawn) [ZD2-Gd(HP-DO3A)] ({X1-PEG2}-TVRTSAD-OH)
- signal enhancement in LNCaP tumors ([1]; 0.1 mmol/kg i.v., up to 30 min, 7T): significantly lower signal enhancement
- CNR in LNCaP tumors ([1]; 10-30 min post-injection): 6-9
- increase of CNR in LNCaP tumors ([1]; during the first 30 min after injection): 10-60%
- CNR in LNCaP tumors relative to PC3 tumors ([1]; first 30 min): more than two times lower
- urine concentration of endogenous metal ions post-injection vs pre-injection [2]: without any significant increase
- dose excreted ([2]; mouse, in vivo, iv, within 24 hours post-injection, read-out: injected dose excreted in urine): > 95%
- r1 [3]: 5.4 mM⁻¹ s⁻¹
- tissue retention of Gd [4]: same low tissue retention as ProHance
- Gd(III) concentration in most of the organs, including the brain, heart, and skin [5]: below the detection limit
- tumor T1 (PC3 tumors; 30 min after injection, before injection 2.75±0.05 s): 1.81 ± 0.07 s
- change in relaxation rate (ΔR1) (PC3 tumors; among all cases (PC3/LNCaP, ZD2-Gd(HP-DO3A)/ProHance)): highest relaxation rate change
- Gd concentration in PC3 tumors by ICP-OES (PC3 tumors; mouse, in vivo): significantly higher concentration
- tumor T1 (LNCaP tumors): 2.54 ± 0.13 s
- tumor contrast enhancement [6]: robust tumor enhancement for at least 30 min
- relative Gd content ([7]; 200-min incubation in PBS with and without Cu2+, Ca2+, or Zn2+): No decrease in Gd content
- transmetallation with endogenous metal ions ([7]; 24 hours of incubation with Cu2+, Ca2+, Zn2+ in PBS (pH=7.4)): no evident transmetallation
- tumor enhancement in MRI (4T1 metastatic tumors; metastatic tumors at two weeks): All five tumors indicated in BLI showed enhancement in MRI
- signal enhancement in tumor by CNR measurement (4T1 metastatic tumors; tumor vs liver, kidney, bladder, muscle): significant higher signal enhancement
